Data from patent US20030171329A1, “Stable compositions comprising tezacitabine” (priority 2002, published 2003).

Legend:
[1] = Effects of pH and storage temperature on stability of FMdC solutions (Example 1, HPLC); assay type: physicochemical; details: for FMdC content: 1 mg/mL
Protocol: In this example the effects of pH and storage temperature on the stability of tezacitabine (FMdC) solutions was evaluated. FMdC solutions were made up at 1 mg/mL in aqueous sodium phosphate buffers at pH 1, 3, 5, 7 and 9, then filled in sealed glass ampoules and placed at 5°, 25°, and 45° C. FMdC content was assessed at various times using an HPLC method. The column was a PACK ODS column (YMC, Inc, Wilmington, Del.) with a mobile phase of 55/40/5 (v/v/v) 0.086M NaH2PO4 (pH 7)/0.05M 1-pentanesulfonic acid sodium salt/acetonitrile. Detection was by UV at 268 nm. Flow rate was 1.5 mL/min and injection volume was 10 μL.

[2] = Degradation products in HPLC chromatograms of degraded samples; assay type: physicochemical
Excerpt: The major degradation product of tezacitabine seen in HPLC chromatograms of degraded samples is cytosine. Based on this, but without limitation to any specific theory, the mechanism of degradation is believed to involve hydrolysis of the glycosidic bond between the […] ring and the sugar ring. This hydrolysis reaction is believed to occur rapidly at low pH but much less rapidly at high pH. The liberated sugar moiety is believed subsequently to undergo rapid degradation to a spectrum of products, one or more of which are highly acidic as well as being colored. The cytosine may also further degrade to acid-producing and/or color-producing species. The degradation, therefore, has a propensity to become autocatalytic, as the liberated acid species would tend to lower the pH, thus accelerating the degradation of previously undegraded tezacitabine molecules.
Degradation of tezacitabine can readily be monitored by the use of high pressure liquid chromatography (HPLC) methods which separate the drug from its degradation products and quantitate the amount of intact drug remaining in the solution. Typically such studies are performed by filling aliquots of various tezacitabine solutions into appropriate containers (e.g., stoppered glass vials or sealed ampoules) and storing these samples for various periods of time under various storage conditions. […]

[3] = Stability of FMdC solution 10 mg/mL in various buffer systems at 40° C. (Example 4, HPLC); assay type: physicochemical; details: for pH: 10 mg/mL
Protocol: In this study the stability of FMdC solution 10 mg/mL was studied in various buffer systems. FMdC solutions were made up and pH adjusted to target with sodium hydroxide. Solution samples were placed in stoppered glass vials and stored at 40° C. FMdC content was assessed at various times using the HPLC method described in Example 3 above.

[4] = Stability of tezacitabine in unbuffered aqueous solution; assay type: physicochemical
human and rodent tumors = details: tumors of lung, colon, breast, prostate, pancreas, leukemias and lymphomas; cited from earlier work

## Nc1ccn([C@@H]2O[C@H](CO)[C@@H](O)/C2=C\F)c(=O)n1 [FMdC, (E)-2′-deoxy-2′-(fluoromethylene)cytidine]
[1]; sodium phosphate pH 1, 5° C., 0 days
  FMdC content: 100.0 % of initial
[1]; sodium phosphate pH 1, 5° C., 1 day
  FMdC content: 93.2 % of initial
[1]; sodium phosphate pH 1, 5° C., 14 days
  FMdC content: 70.0 % of initial
[1]; sodium phosphate pH 1, 5° C., 29 days
  FMdC content: 47.1 % of initial
[1]; sodium phosphate pH 1, 25° C., 0 days
  FMdC content: 100.0 % of initial
[1]; sodium phosphate pH 1, 25° C., 1 day
  FMdC content: 45.7 % of initial
[1]; sodium phosphate pH 1, 25° C., 7 days
  FMdC content: 4.5 % of initial
[1]; sodium phosphate pH 1, 45° C., 0 days
  FMdC content: 100.0 % of initial
[1]; sodium phosphate pH 1, 45° C., 1 day
  FMdC content: 3.9 % of initial
[1]; sodium phosphate pH 3, 5° C., 0 days
  FMdC content: 100.0 % of initial
[1]; sodium phosphate pH 3, 5° C., 1 day
  FMdC content: 89.4 % of initial
[1]; sodium phosphate pH 3, 5° C., 14 days
  FMdC content: 73.3 % of initial
[1]; sodium phosphate pH 3, 5° C., 29 days
  FMdC content: 51.7 % of initial
[1]; sodium phosphate pH 3, 25° C., 0 days
  FMdC content: 100.0 % of initial
[1]; sodium phosphate pH 3, 25° C., 1 day
  FMdC content: 50.5 % of initial
[1]; sodium phosphate pH 3, 25° C., 7 days
  FMdC content: 4.7 % of initial
[1]; sodium phosphate pH 3, 45° C., 0 days
  FMdC content: 100.0 % of initial
[1]; sodium phosphate pH 3, 45° C., 1 day
  FMdC content: 4.4 % of initial
[1]; sodium phosphate pH 5, 5° C., 0 days
  FMdC content: 100.0 % of initial
[1]; sodium phosphate pH 5, 5° C., 7 days
  FMdC content: 95.8 % of initial
[1]; sodium phosphate pH 5, 5° C., 14 days
  FMdC content: 98.2 % of initial
[1]; sodium phosphate pH 5, 5° C., 29 days
  FMdC content: 93.5 % of initial
[1]; sodium phosphate pH 5, 25° C., 0 days
  FMdC content: 100.0 % of initial
[1]; sodium phosphate pH 5, 25° C., 7 days
  FMdC content: 73.0 % of initial
[1]; sodium phosphate pH 5, 25° C., 14 days
  FMdC content: 56.3 % of initial
[1]; sodium phosphate pH 5, 25° C., 29 days
  FMdC content: 28.6 % of initial
[1]; sodium phosphate pH 5, 45° C., 0 days
  FMdC content: 100.0 % of initial
[1]; sodium phosphate pH 5, 45° C., 7 days
  FMdC content: 2.5 % of initial
[1]; sodium phosphate pH 7, 5° C., 0 days
  FMdC content: 100.0 % of initial
[1]; sodium phosphate pH 7, 5° C., 7 days
  FMdC content: 100.8 % of initial
[1]; sodium phosphate pH 7, 5° C., 14 days
  FMdC content: 100.6 % of initial
[1]; sodium phosphate pH 7, 5° C., 29 days
  FMdC content: 99.8 % of initial
[1]; sodium phosphate pH 7, 25° C., 0 days
  FMdC content: 100.0 % of initial
[1]; sodium phosphate pH 7, 25° C., 7 days
  FMdC content: 100.4 % of initial
[1]; sodium phosphate pH 7, 25° C., 14 days
  FMdC content: 99.4 % of initial
[1]; sodium phosphate pH 7, 25° C., 29 days
  FMdC content: 98.8 % of initial
[1]; sodium phosphate pH 7, 45° C., 0 days
  FMdC content: 100.0 % of initial
[1]; sodium phosphate pH 7, 45° C., 7 days
  FMdC content: 96.5 % of initial
[1]; sodium phosphate pH 7, 45° C., 14 days
  FMdC content: 92.0 % of initial
[1]; sodium phosphate pH 7, 45° C., 29 days
  FMdC content: 82.3 % of initial
[1]; sodium phosphate pH 9, 5° C., 0 days
  FMdC content: 100.0 % of initial
[1]; sodium phosphate pH 9, 5° C., 7 days
  FMdC content: 100.4 % of initial
[1]; sodium phosphate pH 9, 5° C., 14 days
  FMdC content: 100.8 % of initial
[1]; sodium phosphate pH 9, 5° C., 29 days
  FMdC content: 100.4 % of initial
[1]; sodium phosphate pH 9, 25° C., 0 days
  FMdC content: 100.0 % of initial
[1]; sodium phosphate pH 9, 25° C., 7 days
  FMdC content: 100.5 % of initial
[1]; sodium phosphate pH 9, 25° C., 14 days
  FMdC content: 99.4 % of initial
[1]; sodium phosphate pH 9, 25° C., 29 days
  FMdC content: 100.4 % of initial
[1]; sodium phosphate pH 9, 45° C., 0 days
  FMdC content: 100.0 % of initial
[1]; sodium phosphate pH 9, 45° C., 7 days
  FMdC content: 100.1 % of initial
[1]; sodium phosphate pH 9, 45° C., 14 days
  FMdC content: 98.7 % of initial
[1]; sodium phosphate pH 9, 45° C., 29 days
  FMdC content: 96.5 % of initial
[1]; low pH (pH 1 and 3), even under refrigeration
  stability in words: very unstable
[1]; pH 9, compared with pH 1 to 7
  stability in words: most stable
[2]
  major degradation product: cytosine
[3]; 20 mM TRIS, 0 mon
  pH: 9.42
[3]; 20 mM TRIS, 1 mon
  pH: 9.24
[3]; 20 mM TRIS, 2 mon
  pH: 9.05
[3]; 20 mM TRIS, 3 mon
  pH: 8.89
[3]; 20 mM TRIS, 4 mon
  pH: 8.58
[3]; 20 mM glycine, 0 mon
  pH: 9.60
[3]; 20 mM glycine, 1 mon
  pH: 9.32
[3]; 20 mM glycine, 2 mon
  pH: 9.24
[3]; 20 mM glycine, 3 mon
  pH: 9.11
[3]; 20 mM glycine, 4 mon
  pH: 8.86
[3]; 20 mM sodium phosphate, 0 mon
  pH: 9.36
[3]; 20 mM sodium phosphate, 1 mon
  pH: 8.32
[3]; 20 mM sodium phosphate, 2 mon
  pH: 7.76
[3]; 20 mM sodium phosphate, 3 mon
  pH: 7.72
[3]; 20 mM sodium phosphate, 4.7 mon
  pH: 4.65
[3]; 100 mM sodium phosphate, 0 mon
  pH: 9.44
[3]; 100 mM sodium phosphate, 1 mon
  pH: 9.14
[3]; 100 mM sodium phosphate, 2 mon
  pH: 8.69
[3]; 100 mM sodium phosphate, 3 mon
  pH: 8.47
[3]; 100 mM sodium phosphate, 4 mon
  pH: 8.18
[3]; 100 mM sodium phosphate, 6 mon
  pH: 7.80
[3]; 100 mM sodium phosphate, 9 mon
  pH: 7.14
[3]; same buffer concentrations (20 mM)
  comparison of buffers in stabilizing FMdC: glycine and TRIS are superior to phosphate
[4]; 35° C., start
  pH before storage: about 7.2
[4]; 35° C., within 4 days
  loss of drug (HPLC): greater than 90%
  pH after storage: about 4.3
[4]; room temperature, within five days
  colour change of solution, indicative of degradation: changes from colorless to yellow to light brown
Human and rodent tumors
  antitumor activity in animal studies: exhibited activity
